Laboratory results from ChEMBL document CHEMBL5260859, “Discovery and structure-activity relationship study of 2-piperazinyl-benzothiazole derivatives as potent and selective PPARδ agonists” (Bioorg Med Chem, 2023).

What was measured:
[1] = target: T1, Peroxisome proliferator-activated receptor gamma (Mus musculus, UniProt P37238); assay: Agonist activity at Gal4-fused mouse PPAR-gamma ligand binding domain expressed in CHO-K1 cells assessed as receptor transactivation incubated for 24 to 48 hrs by luciferase reporter gene assay; format: cell-based
T1 sequence (P37238 whole entry): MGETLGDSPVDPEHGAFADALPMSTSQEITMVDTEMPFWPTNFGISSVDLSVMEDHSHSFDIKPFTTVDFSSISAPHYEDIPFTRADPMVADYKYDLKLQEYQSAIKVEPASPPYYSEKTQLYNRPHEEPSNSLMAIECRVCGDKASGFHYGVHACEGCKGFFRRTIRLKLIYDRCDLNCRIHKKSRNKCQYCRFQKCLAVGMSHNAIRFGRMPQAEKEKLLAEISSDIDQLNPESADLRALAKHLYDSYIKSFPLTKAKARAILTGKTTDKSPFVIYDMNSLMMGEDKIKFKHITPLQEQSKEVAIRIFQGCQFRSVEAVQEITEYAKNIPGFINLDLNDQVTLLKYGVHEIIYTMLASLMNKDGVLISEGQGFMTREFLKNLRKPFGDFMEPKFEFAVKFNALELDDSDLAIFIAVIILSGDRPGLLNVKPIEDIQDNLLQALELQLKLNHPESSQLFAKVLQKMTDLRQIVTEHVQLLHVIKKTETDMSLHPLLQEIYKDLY

[2] = target: T2, Peroxisome proliferator-activated receptor alpha (Mus musculus, UniProt P23204); assay: Agonist activity at Gal4-fused mouse PPAR-alpha ligand binding domain expressed in CHO-K1 cells assessed as receptor transactivation incubated for 24 to 48 hrs by luciferase reporter gene assay; format: cell-based
T2 sequence (P23204 whole entry): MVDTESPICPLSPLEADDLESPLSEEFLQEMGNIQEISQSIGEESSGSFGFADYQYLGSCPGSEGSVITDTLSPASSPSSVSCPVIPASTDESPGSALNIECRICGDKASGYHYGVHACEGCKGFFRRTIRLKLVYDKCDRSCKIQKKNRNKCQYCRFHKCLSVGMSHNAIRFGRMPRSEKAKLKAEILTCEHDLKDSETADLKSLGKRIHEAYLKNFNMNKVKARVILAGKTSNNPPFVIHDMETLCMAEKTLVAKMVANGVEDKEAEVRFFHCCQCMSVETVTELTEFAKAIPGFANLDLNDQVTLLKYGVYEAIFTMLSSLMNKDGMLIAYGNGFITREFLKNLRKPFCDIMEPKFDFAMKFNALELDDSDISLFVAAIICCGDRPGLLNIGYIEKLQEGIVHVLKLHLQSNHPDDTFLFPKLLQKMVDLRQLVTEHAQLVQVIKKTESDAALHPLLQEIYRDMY

[3] = target: T3, Peroxisome proliferator-activated receptor delta (Mus musculus) (UniProt P35396); assay: Agonist activity at Gal4-fused mouse PPAR-delta ligand binding domain expressed in CHO-K1 cells assessed as receptor transactivation incubated for 24 to 48 hrs by luciferase reporter gene assay relative to control; format: cell-based; conditions: time lower 24.0 hrs, time upper […]
T3 sequence (whole entry): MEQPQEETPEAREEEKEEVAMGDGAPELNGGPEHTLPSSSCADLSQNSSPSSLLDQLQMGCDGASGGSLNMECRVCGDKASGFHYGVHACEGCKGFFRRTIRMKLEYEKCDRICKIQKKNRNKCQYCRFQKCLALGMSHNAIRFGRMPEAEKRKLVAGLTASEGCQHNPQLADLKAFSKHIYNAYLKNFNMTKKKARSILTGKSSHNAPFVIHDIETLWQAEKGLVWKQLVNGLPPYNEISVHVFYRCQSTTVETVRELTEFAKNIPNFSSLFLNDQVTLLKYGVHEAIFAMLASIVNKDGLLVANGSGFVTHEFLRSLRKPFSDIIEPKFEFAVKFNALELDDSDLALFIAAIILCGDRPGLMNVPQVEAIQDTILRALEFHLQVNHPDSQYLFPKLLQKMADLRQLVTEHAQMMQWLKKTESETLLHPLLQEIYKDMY

[4] = target: T4, Peroxisome proliferator-activated receptor alpha (Mus musculus) (UniProt P23204); assay: Agonist activity at Gal4-fused mouse PPAR-alpha ligand binding domain expressed in CHO-K1 cells assessed as receptor transactivation incubated for 24 to 48 hrs by luciferase reporter gene assay relative to control; format: cell-based; conditions: time lower 24.0 hrs, time upper […]
T4 sequence (whole entry): T2 sequence (P23204 whole entry)

[5] = target: T5, Peroxisome proliferator-activated receptor delta (Mus musculus, UniProt P35396); assay: Agonist activity at Gal4-fused mouse PPAR-delta ligand binding domain expressed in CHO-K1 cells assessed as receptor transactivation incubated for 24 to 48 hrs by luciferase reporter gene assay; format: cell-based
T5 sequence (P35396 whole entry): T3 sequence (whole entry)

[6] = target: T6, Peroxisome proliferator-activated receptor delta (Homo sapiens) (UniProt Q03181); assay: Agonist activity at Gal4-fused human PPAR-delta ligand binding domain expressed in CHO-K1 cells assessed as receptor transactivation incubated for 24 to 48 hrs by luciferase reporter gene assay relative to control; format: cell-based; conditions: time lower 24.0 hrs, time upper […]
T6 sequence (whole entry): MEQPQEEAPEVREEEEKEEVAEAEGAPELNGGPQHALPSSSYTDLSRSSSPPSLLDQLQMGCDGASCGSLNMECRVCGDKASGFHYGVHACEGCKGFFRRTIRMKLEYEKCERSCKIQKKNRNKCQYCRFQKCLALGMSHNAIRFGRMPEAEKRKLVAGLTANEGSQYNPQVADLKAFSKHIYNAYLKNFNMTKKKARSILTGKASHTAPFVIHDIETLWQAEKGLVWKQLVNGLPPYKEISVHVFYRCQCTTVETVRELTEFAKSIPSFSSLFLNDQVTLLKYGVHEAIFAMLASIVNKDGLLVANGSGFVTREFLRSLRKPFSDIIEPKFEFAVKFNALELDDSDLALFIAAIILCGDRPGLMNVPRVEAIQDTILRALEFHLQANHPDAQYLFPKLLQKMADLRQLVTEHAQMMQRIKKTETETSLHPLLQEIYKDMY

[7] = target: T7, Peroxisome proliferator-activated receptor delta (Homo sapiens, UniProt Q03181); assay: Agonist activity at Gal4-fused human PPAR-delta ligand binding domain expressed in CHO-K1 cells assessed as receptor transactivation incubated for 24 to 48 hrs by luciferase reporter gene assay; format: cell-based
T7 sequence (Q03181 whole entry): T6 sequence (whole entry)

Mus musculus [8] = assay: Antihypercholesterolemic activity against hApoB100/hCETP-dTg hypercholesterolemic mouse model assessed as serum HDL-C level at 3 mg/kg, po administered once daily for 8 days; format: functional; conditions: time 8 day
Mus musculus [9] = assay: Antihypercholesterolemic activity against hApoB100/hCETP-dTg hypercholesterolemic mouse model assessed as serum non-HDL-C level at 3 mg/kg, po administered once daily for 8 days; format: functional; conditions: time 8 day
Mus musculus [10] = species: Mus musculus; assay: Selectivity ratio of EC50 for agonist activity at Gal4-fused mouse PPAR-alpha ligand binding domain expressed in CHO-K1 cells to EC50 for agonist activity at Gal4-fused mouse PPAR-delta ligand binding domain expressed in CHO-K1 cells; format: cell-based
[11] = target: T8, Peroxisome proliferator-activated receptor alpha (Homo sapiens) (UniProt Q07869); assay: Agonist activity at Gal4-fused human PPAR-alpha ligand binding domain expressed in CHO-K1 cells assessed as receptor transactivation incubated for 24 to 48 hrs by luciferase reporter gene assay relative to control; format: cell-based; conditions: time lower 24.0 hrs, time upper […]
T8 sequence (whole entry): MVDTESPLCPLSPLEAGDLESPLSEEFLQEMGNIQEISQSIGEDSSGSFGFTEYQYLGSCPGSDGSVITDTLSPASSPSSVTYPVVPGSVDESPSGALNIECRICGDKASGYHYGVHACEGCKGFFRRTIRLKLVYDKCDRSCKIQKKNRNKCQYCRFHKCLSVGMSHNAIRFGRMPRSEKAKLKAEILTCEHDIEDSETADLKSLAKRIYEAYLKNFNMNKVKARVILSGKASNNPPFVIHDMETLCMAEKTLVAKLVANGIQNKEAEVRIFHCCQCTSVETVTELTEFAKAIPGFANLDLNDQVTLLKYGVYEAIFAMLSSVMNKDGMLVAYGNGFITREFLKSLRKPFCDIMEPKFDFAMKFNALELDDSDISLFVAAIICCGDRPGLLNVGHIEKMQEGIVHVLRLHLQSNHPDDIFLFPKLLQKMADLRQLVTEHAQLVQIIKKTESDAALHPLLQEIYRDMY

[12] = target: T9, Peroxisome proliferator-activated receptor gamma (Homo sapiens, UniProt P37231); format: cell-based, CHO-K1
T9 sequence (P37231 whole entry): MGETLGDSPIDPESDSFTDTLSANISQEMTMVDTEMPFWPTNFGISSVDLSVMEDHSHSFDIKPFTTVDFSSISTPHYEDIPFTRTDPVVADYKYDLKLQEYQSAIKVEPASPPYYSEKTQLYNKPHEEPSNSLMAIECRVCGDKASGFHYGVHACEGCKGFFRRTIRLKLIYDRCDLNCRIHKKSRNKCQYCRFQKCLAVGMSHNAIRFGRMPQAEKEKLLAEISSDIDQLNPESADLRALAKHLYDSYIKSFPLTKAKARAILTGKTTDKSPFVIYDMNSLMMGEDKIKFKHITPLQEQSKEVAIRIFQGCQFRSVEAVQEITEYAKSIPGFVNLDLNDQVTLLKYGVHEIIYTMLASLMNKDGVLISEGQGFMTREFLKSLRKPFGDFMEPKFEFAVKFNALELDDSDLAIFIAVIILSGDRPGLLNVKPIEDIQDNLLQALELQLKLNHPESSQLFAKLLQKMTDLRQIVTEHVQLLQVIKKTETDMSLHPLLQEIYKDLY

SMILES | EC50 [1] | EC50 [2] | Emax [3] | Emax [4] | EC50 [5] | Emax [6] | EC50 [7] | Emax [11] | EC50 [12] | Activity (Mus musculus [8]) | Activity (Mus musculus [9]) | Ratio EC50 (Mus musculus [10])
C[C@H]1CN(c2nc3ccc(Cl)cc3s2)CCN1CCOc1cc(CC(=O)O)ccc1Cl |  | 7100 nM | 23.2% | 8.3% | 12 nM | 15.5% | 5 nM |  |  |  |  | 
Cc1cc(SCc2sc(-c3ccc(C(F)(F)F)cc3)nc2C)ccc1OCC(=O)O [GW501516] |  |  |  |  |  |  |  |  |  | 141% | 67% | 
C[C@H]1CN(CCOc2cc(CC(=O)O)ccc2Cl)CCN1c1nc2ccc(Cl)cc2s1 | 150 nM | 13000 nM | 27.9% | 16.7% | 27 nM | 23.9% | 17 nM |  |  |  |  | 
Cc1cc(CC(=O)O)cc(CN2CCN(c3nc4ccc(C(F)(F)F)cc4s3)[C@@H](CC(C)C)C2)c1 |  | 5800 nM | 17.9% | 4.5% | 79 nM | 13.6% | 19 nM | 1.4% | 1500 nM |  |  | 73

More lines, in order of falling EC50 [2], values ahead:

EC50 [1] | EC50 [2] | Emax [3] | Emax [4] | EC50 [5] | Emax [6] | EC50 [7] | Emax [11] | EC50 [12] | SMILES | Activity (Mus musculus [8]) | Activity (Mus musculus [9]) | Ratio EC50 (Mus musculus [10])
500 nM | 4900 nM | 21.7% | 6.9% | 25 nM |  |  |  |  | Cc1ccc(CC(=O)O)cc1OCCN1CCN(c2nc3ccc(Cl)cc3s2)C[C@@H]1C |  |  | 
670 nM | 3800 nM | 30.8% | 9.1% |  |  |  |  |  | CC[C@H]1CN(Cc2cc(C)cc(CC(=O)O)c2)CCN1c1nc2ccc(C(F)(F)F)cc2s1 |  |  | 
390 nM | 3400 nM | 31.3% | 6.1% | 5.8 nM |  |  |  |  | CC[C@H]1CN(c2nc3ccc(Cl)cc3s2)CCC1CCOc1cc(CC(=O)O)ccc1Cl (some centres not stated) |  |  | 
3300 nM | 3000 nM | 19% | 6.6% |  |  |  |  |  | Cc1cc(CC(=O)O)cc(CN2CCN(c3nc4ccc(C(F)(F)F)cc4s3)CC2)c1 |  |  | 
